Data taken from publication PMC3849007 (Journal of Experimental & Clinical Cancer Research : CR, 2013).
pIC50: −log10 of the molar value.

Tests used:
[1] = tested on: anaphase bridges in BJ-EHLT fibroblasts; type: cell-based; conditions: 0.5 μM, 24 hrs
Description: Anaphase bridges were scored by counting 400 nuclei per sample in triplicate. Histograms show the fold induction in treated versus untreated samples. Right panels show representative images of anaphase bridges in the treated samples at 63× magnification. Histograms show the mean of three independent experiments. Error bars indicate ± SD. (*P < 0.05).
As a result of chromosome ends fusion consequent to telomere damage, chromatin bridges are occasionally observed between daughter cells after mitosis (also called anaphase bridges).

[2] = tested on: human tumor xenografted nude mice; set-up: method as in PMID 19010844; conditions: cited from earlier work
M2 muscarinic receptor = target: T1, M2 muscarinic receptor (Homo sapiens, UniProt P08172); experiment: Cerep ExpresSProfile receptor screen, M2; conditions: data not shown, read-out: % inhibition of ligand binding, M2 muscarinic receptor
T1 construct: purchased Cerep (ExpresSProfile screen, contract service)
T1 sequence (P08172 whole entry): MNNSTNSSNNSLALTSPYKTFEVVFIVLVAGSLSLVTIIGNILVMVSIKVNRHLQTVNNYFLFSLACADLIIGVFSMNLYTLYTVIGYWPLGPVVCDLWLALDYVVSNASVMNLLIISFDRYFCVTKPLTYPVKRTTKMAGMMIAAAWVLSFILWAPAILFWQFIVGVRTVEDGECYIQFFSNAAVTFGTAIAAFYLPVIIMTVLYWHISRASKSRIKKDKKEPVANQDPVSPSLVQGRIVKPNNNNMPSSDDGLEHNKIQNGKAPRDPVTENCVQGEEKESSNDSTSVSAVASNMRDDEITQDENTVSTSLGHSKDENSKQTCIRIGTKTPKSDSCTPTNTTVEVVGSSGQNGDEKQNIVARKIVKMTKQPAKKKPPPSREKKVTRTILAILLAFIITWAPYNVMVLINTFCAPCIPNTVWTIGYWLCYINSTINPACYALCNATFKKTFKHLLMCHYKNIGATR
Protocol: To investigate the molecular bases of cardio toxicity, the agent was tested for its potential to interact with a panel of 54 pharmacological receptors, the majority being human recombinant receptors (Cerep ExpresSProfile screen) (http://www.cerep.fr).

telomerase = target: telomerase; set-up: method as in PMID 15304549; conditions: Trap assay; read-out: telomerase inhibition IC50; cited from earlier work
[3] = tested on: telomere aberrations in BJ-EHLT fibroblasts; experiment: Telomere FISH on metaphase spreads; type: cell-based, human; conditions: 0.5 μM, 72 hrs
Protocol: For metaphase chromosome preparation cells were treated with demecolcine (Sigma, Milan, Italy) 0.1 mg/ml for 4 h and then harvested and washed in 75 mM KCl for 5 min at 37°C. After centrifugation cells were fixed in MeOH/acetic acid 3:1 overnight and then spread on slides. Hybridization with rhodamine-coupled PNA was performed as described. For each sample 20 metaphases per slice on triplicate were scored. Images of the metaphases were captured with a 100 × objective.

In the case of `Cc1cc2c3c([n+](C)c4ccc(F)cc4c3c1)-c1cc(F)ccc1N2C` [Compound 1, 3,11-Difluoro-6,8,13-trimethyl-8H-quino[4,3,2-kl]acridinium metho-sulfate], the “anaphase bridges frequency, fold induction vs untreated” value [1] is given as “ten”, the “toxic deaths or body weight loss” value ([2]; efficacious doses, during or after treatment) is given as “no toxic deaths or body weight loss” and the “histological analysis of organs and tissues” value ([2]; end of treatment) is given as “no evidence of lesions or morphological alterations”. The “haemodynamic effect just after administration” value ([2]; treated vs control mice, with heart rate and cardiac output decrease) was “marked but reversible hypotension”, the inhibition at 1 µM (M2 muscarinic receptor) was > 95% and the pIC50 (telomerase) was 6.48.
For `CC(=O)Nc1ccc2c(c1)c1cccc3c1c([n+]2C)-c1ccccc1N3C` [Compound 3, 3-acetylamino-8,13-dimethyl-8H-quino[4,3,2-kl]-acridinium iodide], the “telomere aberrations (telomere doublets, sister telomere fusions)” value [3] was “lower effect”.
